Measured values reported in ChEMBL document CHEMBL5608141, “Identification of compartment-specific drug sensitivities in CRC organoid-stroma co-cultures” (2024).

Experiments:
Format in all cases: functional, Homo sapiens
Design in all cases: dose or concentration left out as unconfirmed
Colon cancer organoid [1] = assay: Identification of compartment-specific drug sensitivities in O14 CRC organoid-stroma F14 CAF co-cultures. Organoid is transduced with Lucferase2-P2A-EGFP lentivirus, fibroblast with Renilla-dsRed lentivirus. Dual-Glo Luciferase assay is used to report viability data.
Colon cancer organoid [2] = assay: Identification of compartment-specific drug sensitivities in O06 CRC organoid-stroma F06 CAF co-cultures. Organoid is transduced with Lucferase2-P2A-EGFP lentivirus, fibroblast with Renilla-dsRed lentivirus. Dual-Glo Luciferase assay is used to report viability data.
Colon cancer organoid [3] = assay: Identification of compartment-specific drug sensitivities in O20 CRC organoid-stroma F20 CAF co-cultures. Organoid is transduced with Lucferase2-P2A-EGFP lentivirus, fibroblast with Renilla-dsRed lentivirus. Dual-Glo Luciferase assay is used to report viability data.
[4] = Transduced with Lucferase2-P2A-EGFP lentivirus
[5] = Transduced with Renilla-dsRed lentivirus

SMILES	Cell Viability (Colon cancer organoid [1]; [4])	Cell Viability (Colon cancer organoid [1]; [5])	Cell Viability (Colon cancer organoid [2]; [4])	Cell Viability (Colon cancer organoid [2]; [5])	Cell Viability (Colon cancer organoid [3]; [4])	Cell Viability (Colon cancer organoid [3]; [5])
CC(=O)NCC(=O)N1[C@@H]2CC[C@H]1c1ccc(Nc3ncc(C(F)(F)F)c(NC4CCC4)n3)cc12 [PF-03814735]	7.804%	45.5161%	12.0789%	82.3636%	4.585%	155.761%
OCCn1cc(-c2cnc3nnn(Cc4ccc5ncccc5c4)c3n2)cn1 [PF-04217903]	55.9796%	102.526%	88.0795%	107.387%	122.103%	97.2338%
C[C@H](c1ccc(F)cc1)N(Cc1cccc(C(=O)O)c1)C(=O)c1cnc2ccccc2c1 [PF-05105679]	130.3%	106.537%	130.848%	113.872%	143.937%	111.508%
C[C@H](c1ccc(F)cc1)N(Cc1ccc(Cl)c(C(=O)O)c1)C(=O)c1cnc2ccccc2c1 [PF-05257137]	108.547%	109.197%	94.0157%	76.638%	147.232%	103.742%
COc1ncc(F)cc1CNc1ccc(Cc2c[nH]c3ncc(C)cc23)c(F)n1 [PLX-5622]	119.621%	35.1649%	82.7626%	63.3822%	206.903%	55.6932%
Cc1noc(C)c1-c1cnc2c(-c3ccc(C(=O)O)cc3)cn([C@@H](C)c3ccccn3)c2c1 [PLX-51107]	39.3332%	170.275%	26.8486%	312.702%	17.7697%	177.825%
Cn1cc(CNCC2CCN(c3ncc(C(=O)NO)cn3)CC2)c2ccccc21 [QUISINOSTAT]	6.037%	54.4916%	1.095%	190.694%	1.348%	37.1921%
CC(C)(C)c1cc(NC(=O)Nc2ccc(-c3cn4c(n3)sc3cc(OCCN5CCOCC5)ccc34)cc2)no1 [QUIZARTINIB]	48.7226%	98.8717%	26.1053%	134.448%	58.8072%	111.29%
CN(C)C(=O)c1cc2cnc(Nc3ccc(N4CCNCC4)cn3)nc2n1C1CCCC1 [RIBOCICLIB]	43.0147%	103.263%	54.2961%	126.231%	36.7036%	144.514%
O=C(CCCCCCNC(=O)c1cnc(N(c2ccccc2)c2ccccc2)nc1)NO [RICOLINOSTAT]	136.319%	100.142%	80.064%	143.43%	159.49%	130.22%
C=CC(=O)Nc1ccc2[nH]c(=O)n(C3CCN(Cc4ccc(-c5ccc6c(c5)NC(=O)CO6)cc4)CC3)c2c1 [RL2578]	83.2796%	87.8699%	88.4189%	104.707%	101.642%	98.7435%
CN(C)CCOc1ccc(-c2nc(-c3ccncc3)c(-c3ccc4c(c3)CC/C4=N\O)[nH]2)cc1 [SB590885]	183.636%	84.6732%	79.2379%	96.48%	154.959%	68.1541%
CC[C@H](CO)Nc1nc(NCc2ccccc2)c2ncn(C(C)C)c2n1 [SELICICLIB]	121.256%	106.182%	93.234%	112.199%	126.177%	75.3934%
C[C@@H]1CCc2ncc(F)cc2[C@H]2CCCN2c2ccn3ncc(c3n2)C(=O)N1 [SELITRECTINIB]	99.8274%	100.464%	101.733%	118.761%	168.559%	73.3915%
Cc1cc(F)c(C(=O)Nc2cccc(-c3nncn3C(C)C)n2)cc1-n1cnc(C2CC2)c1 [SELONSERTIB]	143.918%	74.3836%	89.6649%	105.018%	141.758%	89.2485%
Cn1cnc2c(F)c(Nc3ccc(Br)cc3Cl)c(C(=O)NOCCO)cc21 [SELUMETINIB]	44.7701%	55.8657%	99.2613%	98.6384%	54.0546%	152.417%
O=C(O)c1ccc2c(c1)nc(Nc1cccc(Cl)c1)c1ccncc12 [SILMITASERTIB]	116.96%	107.599%	108.166%	80.6873%	158.324%	81.7658%
N#Cc1cnc(Nc2cc(NC[C@H]3CNCCO3)c(C(F)(F)F)cn2)cn1 [SRA-737]	25.2627%	122.808%	89.9461%	120.027%	103.573%	133.202%
CN[C@@H]1C[C@H]2O[C@@](C)([C@@H]1OC)n1c3ccccc3c3c4c(c5c6ccccc6n2c5c31)C(=O)NC4 [STAUROSPORINE]	0.5717%	0.4831%	0.2458%	0.5911%	0.3702%	0.5055%
O=C1c2ccc(Nc3ccc(F)cc3F)cc2CCc2ccc(OC[C@H](O)CO)cc21 [Skepinone-L]	166.491%	75.8508%	115.343%	88.0925%	88.6485%	86.6611%
CN1CCN(C(=O)C(C)(C)c2ccc(C(=O)Nc3cn4cc(-c5cc(C(C)(C)C)cc(C(C)(C)C)c5)ccc4n3)cc2)CC1 [T3-CLK-N]	123.449%	101.908%	112.366%	80.0588%	83.0148%	112.725%
CN1CCN(C(=O)C(C)(C)c2ccc(C(=O)Nc3cn4cc(-c5ccncc5)ccc4n3)cc2)CC1 [T3-CLK]	20.1131%	93.3356%	27.6026%	129.967%	17.3495%	291.942%
COc1cccc(CNC(=O)c2nc3scc(CN(C)Cc4ccccc4)c3c(=O)[nH]2)c1 [T-26f]	126.414%	118.487%	112.096%	76.7347%	156.545%	109.586%
